Assay results taken from patent publication US20230312550A1, “N-(2-(4-CYANOTHIAZOLIDIN-3-YL)-2-OXOETHYL)-QUINOLINE-4-CARBOXAMIDES” (AstraZeneca AB, priority 2020, published 2023).
Converted amounts (≈) assume the structure as drawn.

Assays:
[1] = molecular target: FAP (Mus musculus (Mouse), UniProt P97321); experiment: FAP plasma inhibition assay, mouse plasma; format: biochemical; conditions: mouse plasma diluted 1:67, Ala-Pro-AMC 75 μM
Protocol: This assay was adapted from the method described in Example 237 for detection of FAP target engagement enzyme activity in plasma. Plasma (anticoagulant K2EDTA) was used as the enzyme source: Human plasma (Pooled from AZ Biobank), Mouse plasma (AZ AST Biobank), and Cynomolgus plasma (BioIVT, #NHP00PLK2FNN, lot CYN222895). 384-Well black fluotrack PS plates (Greiner 781076) were used. 20 μL diluted plasma (Cynomolgus and Human plasma dilution 1:40, Mouse plasma dilution 1:67) in buffer (PBS, 0.1% BSA) was added to 0.6 μL compounds (in DMSO). Compounds were tested using 10 CR, 3 fold dilution series from 500 nM FAC. Two replicates for each assay point were run on the same plate. A fluorescence blank read was taken before substrate addition. […] Plates were incubated for 40 min at rt in the dark. […] IC50 values were determined by plotting % inhibition versus log compound concentration.

[2] = molecular target: Prolyl endopeptidase, Prolyl Oligopeptidase (hPREP) (Homo sapiens (Human), UniProt P48147); experiment: hPrep inhibition assay; format: biochemical; conditions: hPREP 0.6 nM, Z-Gly-Pro-amino-methylcoumarin 50 μM; read-out: PREP IC50
Method in brief: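 Fluorogenic read-out (340 nm excitation, 460 nm emission) after 20 min at rt, using 50 μM final Z-Gly-Pro-aminomethylcoumarin and 0.6 nM final enzyme, following 15 min compound preincubation. Buffer pH 7.5 with glutathione and Triton X-100. IC50 via one-site model on % inhibition vs log concentration.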

[3] = molecular target: hFAP (M39-A757) (Homo sapiens (Human), UniProt Q12884); experiment: hFAP binding assay (surface plasmon resonance); conditions: SPR, 20° C.; for hFAP Binding assay k(off) / hFAP Binding assay k(on): single cycle kinetics; for Kd: n = 1 or geometric mean n = 2-4
[4] = Metabolic stability in human hepatocytes (hHep); format: in vitro ADME; conditions: n = 1 or geometric mean of n = 2
[5] = molecular target: human Fibroblast activation protein alpha (hFAP) (Homo sapiens (Human), UniProt Q12884); experiment: hFAP inhibition assay (tight binders); format: biochemical; conditions: Ala-Pro-AMC 20 μM, n = 1 or geometric mean n = 2-6; note: hFAP 2.4 pM
Protocol: The plates were read on a PHERAstar® reader with excitation 340 nm and emission 460 nm. Data were analyzed in Genedata Screener®. IC50 values were determined by plotting % inhibition versus log compound concentration and using a one site dose response model.

[6] = Caco-2 cell permeability; conditions: human
Protocol: Caco-2 cell permeability was measured as described in Mol Pharm 2017, 14, 1601.

[7] = Metabolic stability in rat hepatocytes (rHep); conditions: n = 1 or geometric mean of n = 2-3
[8] = Metabolic stability in human liver microsomes (HLM); conditions: human
Protocol: Metabolic stability in HLM was measured as described in J Comput Aided Mol Des 2015, 29, 795.

[9] = molecular target: FAP (Homo sapiens (Human), UniProt Q12884); experiment: hFAP inhibition assay; format: biochemical; conditions: hFAP […], Ala-Pro-AMC 20 μM; n = 1 or geometric mean n = 2-3
Method in brief: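 Compounds (10-point, 3-fold dilutions from 50 μM top) were preincubated 15 min at rt in the dark with 0.48 nM hFAP in pH 7.4 Tris/NaCl/Chaps buffer. Reaction was started with substrate (40 μM solution) and ran 30 min at rt. Read by fluorescence (340/460 nm); IC50 from one-site fit.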

[10] = Kinetic solubility; conditions: kinetic from dmso stock
Protocol: Kinetic solubility was measured as described in Comput Aided Mol Des 2015, 29, 795.

[11] = HLM CLint, n = 1 or average of n = 2-3
[12] = Solubility, kinetic solubility, n = 1 or average of n = 2-3

Chain of Prolyl endopeptidase, Prolyl Oligopeptidase (hPREP) (P48147 whole entry): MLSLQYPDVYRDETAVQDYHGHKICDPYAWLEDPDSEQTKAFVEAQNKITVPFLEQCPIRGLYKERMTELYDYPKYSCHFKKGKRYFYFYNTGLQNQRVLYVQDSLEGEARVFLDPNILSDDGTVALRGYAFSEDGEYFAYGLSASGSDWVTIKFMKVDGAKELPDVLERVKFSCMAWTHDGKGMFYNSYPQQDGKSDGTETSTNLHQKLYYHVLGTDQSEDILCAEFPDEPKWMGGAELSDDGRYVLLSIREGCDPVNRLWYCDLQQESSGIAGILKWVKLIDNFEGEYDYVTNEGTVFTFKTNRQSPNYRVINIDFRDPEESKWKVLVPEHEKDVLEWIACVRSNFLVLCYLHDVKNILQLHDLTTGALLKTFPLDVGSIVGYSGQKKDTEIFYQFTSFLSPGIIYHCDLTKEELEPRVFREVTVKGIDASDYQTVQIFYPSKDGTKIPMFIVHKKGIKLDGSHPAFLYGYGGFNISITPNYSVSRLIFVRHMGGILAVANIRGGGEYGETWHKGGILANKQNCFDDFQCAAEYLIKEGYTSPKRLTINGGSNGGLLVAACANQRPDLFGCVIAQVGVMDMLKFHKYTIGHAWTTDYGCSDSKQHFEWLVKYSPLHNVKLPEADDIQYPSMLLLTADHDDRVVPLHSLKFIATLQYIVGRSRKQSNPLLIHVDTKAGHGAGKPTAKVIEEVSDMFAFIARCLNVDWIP
Chain of FAP (Mus musculus (Mouse), UniProt P97321) (P97321 24-761): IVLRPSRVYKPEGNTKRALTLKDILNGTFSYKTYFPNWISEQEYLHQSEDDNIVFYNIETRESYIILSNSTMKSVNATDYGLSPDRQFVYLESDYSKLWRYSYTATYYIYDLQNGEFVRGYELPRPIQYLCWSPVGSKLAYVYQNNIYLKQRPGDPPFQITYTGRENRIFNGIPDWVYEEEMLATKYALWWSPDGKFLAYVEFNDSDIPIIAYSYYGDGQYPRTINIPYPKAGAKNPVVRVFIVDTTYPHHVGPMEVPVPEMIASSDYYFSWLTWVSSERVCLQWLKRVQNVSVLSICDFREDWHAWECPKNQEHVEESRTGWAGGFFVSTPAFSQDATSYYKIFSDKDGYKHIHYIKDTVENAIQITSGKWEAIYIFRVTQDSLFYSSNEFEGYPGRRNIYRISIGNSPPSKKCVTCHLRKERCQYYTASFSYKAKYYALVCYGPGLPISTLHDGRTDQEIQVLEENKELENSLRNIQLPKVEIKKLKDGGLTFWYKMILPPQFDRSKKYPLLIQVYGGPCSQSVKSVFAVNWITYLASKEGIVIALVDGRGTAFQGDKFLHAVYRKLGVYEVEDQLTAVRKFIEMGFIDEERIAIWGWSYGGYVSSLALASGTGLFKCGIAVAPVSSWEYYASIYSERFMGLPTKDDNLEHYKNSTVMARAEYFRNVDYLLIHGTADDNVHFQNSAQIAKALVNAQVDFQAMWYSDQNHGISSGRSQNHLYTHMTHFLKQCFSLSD
Chain of FAP (Homo sapiens (Human), UniProt Q12884) (Q12884 38-760): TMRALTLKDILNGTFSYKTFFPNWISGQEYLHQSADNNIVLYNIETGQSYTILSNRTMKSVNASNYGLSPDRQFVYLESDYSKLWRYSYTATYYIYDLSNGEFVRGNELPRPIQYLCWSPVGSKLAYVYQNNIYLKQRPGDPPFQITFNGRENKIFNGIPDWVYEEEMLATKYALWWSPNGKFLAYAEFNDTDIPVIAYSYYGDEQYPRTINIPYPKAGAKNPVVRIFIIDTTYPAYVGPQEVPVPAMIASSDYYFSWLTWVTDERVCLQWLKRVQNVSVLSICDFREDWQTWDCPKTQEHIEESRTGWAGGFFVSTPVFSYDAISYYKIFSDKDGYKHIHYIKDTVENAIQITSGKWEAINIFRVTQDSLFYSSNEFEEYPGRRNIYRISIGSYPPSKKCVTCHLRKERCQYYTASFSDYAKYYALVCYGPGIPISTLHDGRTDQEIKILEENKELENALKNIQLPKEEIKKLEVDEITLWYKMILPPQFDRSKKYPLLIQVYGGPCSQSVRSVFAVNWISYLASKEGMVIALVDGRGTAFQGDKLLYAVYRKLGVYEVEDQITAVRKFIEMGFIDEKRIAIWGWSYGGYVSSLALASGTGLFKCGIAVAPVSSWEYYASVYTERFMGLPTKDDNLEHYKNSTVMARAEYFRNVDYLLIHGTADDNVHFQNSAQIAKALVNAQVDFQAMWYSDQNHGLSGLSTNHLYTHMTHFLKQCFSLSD
Chain of human Fibroblast activation protein alpha (hFAP) (Q12884 38-760): as above
Chain of hFAP (M39-A757) (Q12884 39-757): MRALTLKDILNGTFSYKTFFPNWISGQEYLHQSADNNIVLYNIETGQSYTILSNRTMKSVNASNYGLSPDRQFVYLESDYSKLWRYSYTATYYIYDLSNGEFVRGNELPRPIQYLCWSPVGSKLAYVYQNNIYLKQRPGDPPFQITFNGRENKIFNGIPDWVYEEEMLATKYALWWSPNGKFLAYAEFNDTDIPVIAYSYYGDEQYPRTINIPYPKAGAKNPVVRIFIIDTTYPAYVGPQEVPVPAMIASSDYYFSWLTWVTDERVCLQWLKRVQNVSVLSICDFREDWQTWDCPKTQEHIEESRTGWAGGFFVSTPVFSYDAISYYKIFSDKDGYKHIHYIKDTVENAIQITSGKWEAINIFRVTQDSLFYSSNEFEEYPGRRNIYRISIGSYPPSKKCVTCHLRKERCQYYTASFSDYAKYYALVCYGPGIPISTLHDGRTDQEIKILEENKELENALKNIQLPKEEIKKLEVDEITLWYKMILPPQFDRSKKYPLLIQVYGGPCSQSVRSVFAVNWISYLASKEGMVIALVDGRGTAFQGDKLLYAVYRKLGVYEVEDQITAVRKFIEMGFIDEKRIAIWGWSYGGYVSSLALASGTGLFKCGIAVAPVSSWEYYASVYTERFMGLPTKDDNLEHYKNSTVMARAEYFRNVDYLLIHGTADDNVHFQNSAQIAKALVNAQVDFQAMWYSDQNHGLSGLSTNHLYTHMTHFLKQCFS

| SMILES | IC50 [1] [nM] | IC50 [2] [nM] | hFAP Binding assay k(off) [3] [s⁻¹] | hFAP Binding assay k(on) [3] [M⁻¹ s⁻¹] | IC50 [5] [nM] | Papp A→B [6] [×10⁻⁶ cm/s] | Papp B→A [6] [×10⁻⁶ cm/s] | efflux ratio [6] | rHep CLint [7] [μL/min/1E6] | microsomal CLint [8, 11] [µL/min/mg] | Kd [3] [nM] | IC50 [9] [nM] | solubility [10, 12] [µM] | hHep CLint [4] [μL/min/1E6] | Papp [6] [×10⁻⁶ cm/s] | solubility [10] [µM] | microsomal CLint [8] [µL/min/mg] |
| --- | --- | --- | --- | --- | --- | --- | --- | --- | --- | --- | --- | --- | --- | --- | --- | --- | --- |
| Cc1cc(N2CCOCC2)cc2c(C(=O)NCC(=O)N3CSC[C@H]3C#N)ccnc12 [Example 9] | 0.6 | – | – | – | – | – | – | – | – | – | – | – | – | – | – | – | – |
| CC1(F)CN(c2ccc3nccc(C(=O)NCC(=O)N4CSC[C@H]4C#N)c3c2)C1 [Example 24, (R)—N-(2-(4-Cyanothiazolidin-3-yl)-2-oxoethyl)-6-(3-fluoro-3-methyl-azetidin-1-yl)quinoline-4-carboxamide] | 0.4 | 510 | 0.00048 | 25000000 | – | – | – | – | – | – | – | – | – | – | – | – | – |
| C[C@@H]1OCCN(c2ccc3nccc(C(=O)NCC(=O)N4CSC[C@H]4C#N)c3c2)[C@H]1C [Example 82, N-(2-((R)-4-Cyanothiazolidin-3-yl)-2-oxoethyl)-6-((2S,3S)-2,3-dimethyl-morpholino)quinoline-4-carboxamide] | 0.4 | 930 | 0.000071 | 1400000 | – | – | – | – | – | – | – | – | – | – | – | – | – |
| Cc1nn(C2CCOCC2)c(C)c1-c1ccc2nccc(C(=O)NCC(=O)N3CSC[C@H]3C#N)c2c1 [Example 172, (R)—N-(2-(4-Cyanothiazolidin-3-yl)-2-oxoethyl)-6-(3,5-dimethyl-1-(tetrahydro-2H-pyran-4-yl)-1H-pyrazol-4-yl)quinoline-4-carboxamide] | 0.6 | 540 | 0.000076 | 2400000 | – | – | – | – | – | – | – | – | – | – | – | – | – |
| Cc1noc(C)c1-c1ccc2nccc(C(=O)NCC(=O)N3CSC[C@H]3C#N)c2c1 [Example 216, (R)—N-(2-(4-Cyanothiazolidin-3-yl)-2-oxoethyl)-6-(3,5-dimethylisoxazol-4-yl)quinoline-4-carboxamide] | – | 190 | 0.0009 | 5200000 | 1.7 | 0.62 | 40 | 65 | 17 | 58 | 0.27 | 2.4 | 710 (≈ 299 µg/mL) | – | – | – | – |
| N#C[C@@H]1CSCN1C(=O)CNC(=O)c1ccnc2ccc(N3CCC4(CC3)OCCO4)cc12 [Example 228, (R)—N-(2-(4-cyanothiazolidin-3-yl)-2-oxoethyl)-6-(1,4-dioxa-8-azaspiro[4.5]decan-8-yl)quinoline-4-carboxamide] | – | 1200 | – | – | 0.087 | 25 | 27 | 0.9 | 9 | – | – | – | – | <1 | 0.9 | 879 (≈ 411 µg/mL) | < 3 |

More lines, main results first:

| IC50 [1] [nM] | IC50 [2] [nM] | hFAP Binding assay k(off) [3] [s⁻¹] | hFAP Binding assay k(on) [3] [M⁻¹ s⁻¹] | IC50 [5] [nM] | Papp A→B [6] [×10⁻⁶ cm/s] | Papp B→A [6] [×10⁻⁶ cm/s] | efflux ratio [6] | rHep CLint [7] [μL/min/1E6] | microsomal CLint [8, 11] [µL/min/mg] | Kd [3] [nM] | IC50 [9] [nM] | solubility [10, 12] [µM] | SMILES | hHep CLint [4] [μL/min/1E6] | Papp [6] [×10⁻⁶ cm/s] | solubility [10] [µM] | microsomal CLint [8] [µL/min/mg] |
| --- | --- | --- | --- | --- | --- | --- | --- | --- | --- | --- | --- | --- | --- | --- | --- | --- | --- |
| – | 880 | 0.000054 | 1800000 | 0.053 | 2.8 | 33 | 12 | 7.6 | 21 | 0.03 | – | – | COC1(C)CCN(c2ccc3nccc(C(=O)NCC(=O)N4CSC[C@H]4C#N)c3c2)CC1 [Example 42, (R)—N-(2-(4-Cyanothiazolidin-3-yl)-2-oxoethyl)-6-(4-methoxy-4-methylpiperidin-1-yl)quinoline-4-carboxamide] | 2.7 | – | – | – |
| 0.8 | 3600 | 0.00014 | 440000 | – | – | – | – | – | – | – | – | – | CC1(C)CCN(c2ccc3nccc(C(=O)NCC(=O)N4CSC[C@H]4C#N)c3c2)C(=O)O1 [Example 112, (R)—N-(2-(4-Cyanothiazolidin-3-yl)-2-oxoethyl)-6-(6,6-dimethyl-2-oxo-1,3-oxazinan-3-yl)quinoline-4-carboxamide] | – | – | – | – |
| 0.2 | 940 | 0.000054 | 110000 | – | – | – | – | – | – | – | – | – | N#C[C@@H]1CSCN1C(=O)CNC(=O)c1ccnc2ccc(-c3cnn(C4CCOCC4)c3)cc12 [Example 173, (R)—N-(2-(4-Cyanothiazolidin-3-yl)-2-oxoethyl)-6-(1-(tetrahydro-2H-pyran-4-yl)-1H-pyrazol-4-yl)quinoline-4-carboxamide] | – | – | – | – |
| 0.4 | 760 | 0.00012 | 1400000 | – | – | – | – | – | – | – | – | – | N#C[C@@H]1CSCN1C(=O)CNC(=O)c1ccnc2ccc(-c3cnc4n3CCCC4)cc12 [Example 175, (R)—N-(2-(4-Cyanothiazolidin-3-yl)-2-oxoethyl)-6-(5,6,7,8-tetrahydroimidazo[1,2-a]pyridin-3-yl)quinoline-4-carboxamide] | – | – | – | – |
| – | 360 | 0.000058 | 100000 | 0.11 | 1.3 | 22 | 17 | 7.4 | 13 | 0.56 | 0.29 | 40 (≈ 16.7 µg/mL) | Cc1ccc(-c2ccc3nccc(C(=O)NCC(=O)N4CSC[C@H]4C#N)c3c2)cn1 [Example 177, (R)—N-(2-(4-Cyanothiazolidin-3-yl)-2-oxoethyl)-6-(6-methylpyridin-3-yl)-quinoline-4-carboxamide] | – | – | – | – |
| 0.2 | 84 | 0.00026 | 3200000 | – | – | – | – | – | – | – | – | – | N#C[C@@H]1CSCN1C(=O)CNC(=O)c1ccnc2ccc(-c3ccn[nH]3)cc12 [Example 196, (R)—N-(2-(4-Cyanothiazolidin-3-yl)-2-oxoethyl)-6-(1H-pyrazol-5-yl)-quinoline-4-carboxamide] | – | – | – | – |
| – | 250 | 0.00017 | 1800000 | 0.12 | 0.48 | 29 | 59 | 3.9 | 8 | 0.095 | 0.41 | 350 (≈ 148 µg/mL) | Cc1nc(C)c(-c2ccc3nccc(C(=O)NCC(=O)N4CSC[C@H]4C#N)c3c2)o1 [Example 215, (R)—N-(2-(4-Cyanothiazolidin-3-yl)-2-oxoethyl)-6-(2,4-dimethyloxazol-5-yl)quinoline-4-carboxamide] | – | – | – | – |
